# Results published in patent publication US11091447B2, “UBE2K modulators and methods for their use” (Berg LLC, priority 2020, dated 2021).
# System: MIA PaCa-2 cells
# Test: Cellular viability assay (Cell Titer Fluor)
# Format: cell-based
# Conditions: Homo sapiens, MIA PaCa-2, 72 h, 72 hours incubation
# Method: Cell viability were performed using the Cell Titer Fluor™ Assays (Promega G6080). MIA PaCa-2 cells are grown in DMEM media with 10% FBS, 1% Pen/Strep/Amphotericin B. Cells are trypsinized and counted using the Nexcelom cellometer. 5,000 cells/100 μl are plated per well in Greiner black/clear 96-well plates. Cells should be within 10 passages of stock vial for use in workflow. Three distinct lineages of these cells are cultured in parallel for multiple passages and 5 full plates of each lineage are seeded for one run. Small molecule compounds are provided as 100 mM stock solutions in DMSO. Dilution series plates are prepared using 1:3 dilution to achieve a 7 point concentration on a half log scale. After addition of compounds, cells are incubated 37° C., 5% CO2 for 72 hours.
# For each test compound condition, triplicate technical replicates are used. For each reference compound, duplicate technical replicates are used. At the end of the 72-hour incubation, spent media is discarded. Then, 100 μl of GF-AFC diluted in DMEM (serum and phenol red-free) is added at 1:2000 concentration (5 μl/10 ml). Cells are incubated with reaction buffer for 1 h at 37° C. Fluorescence is then read on the plate reader with excitation wavelength of 390 nm and emission wavelength of 505 nm. All raw data are analyzed on Microsoft Excel 2010 and normalized to the DMSO vehicle control. Relative results are copied into GraphPad Prism for non-linear regression analysis and determination of IC50 and other dose curve parameters (min, max, Hill slope, etc.) using the log (inhibitor) vs. response equation. Values are as follows: A represents an IC50 of <[…], B represents an IC50 of 1 mM to 10 mM, C represents an IC50 of >10 mM.
row,Structure (SMILES),IC50
1,Cc1sccc1-c1cc(CNC(=O)c2ccccc2OC(F)(F)F)n[nH]1 [Compound 17],> 10000 nM
2,O=C(NCc1n[nH]c(-c2cccs2)n1)c1ccccc1OC(F)F [Compound 15],> 10000 nM
3,O=C(NCc1n[nH]c(-c2cccs2)n1)c1nccnc1N1CCC(F)(F)CC1 [Compound 89],> 10000 nM
4,O=C(NCc1cc(-c2cccs2)[nH]n1)c1ccccc1N1CCS(=O)(=O)CC1 [Compound 70],> 10000 nM
5,CCCOc1ccc(F)cc1-c1cc(CNC(=O)c2ccccc2OC(F)(F)F)n[nH]1 [Compound 115],> 10000 nM
6,O=C(NCc1n[nH]c(-c2cccs2)n1)c1nccnc1N1CC(F)(F)C1 [Compound 86],> 10000 nM
7,O=C(NCc1cc(-c2csc(Cl)c2)[nH]n1)c1ccccc1OC(F)(F)F [Compound 21],> 10000 nM
8,CCOc1ccc(Br)cc1-c1nc(CNC(=O)c2ccccc2OC(F)F)n[nH]1 [Compound 59],> 10000 nM
9,COc1c(F)cc(F)cc1-c1cc(CNC(=O)c2ccccc2OC(F)(F)F)n[nH]1 [Compound 49],1000 to 10000 nM
10,"O=C(NCc1n[nH]c(-c2cccs2)n1)c1ccccc1N1CCC(F)(F)CC1 [Compound 76, 2-(4,4-difluoropiperidin-1-yl)-N-((5-(thiophen-2-yl)-1H-1,2,4-triazol-3-yl)methyl) benzamide]",1000 to 10000 nM
11,"Cc1cscc1-c1cc(CNC(=O)c2ccccc2OC(F)(F)F)n[nH]1 [Compound 16, N-((5-(4-methylthiophen-3-yl)-1H-pyrazol-3-yl)methyl)-2-(trifluoromethoxy) benzamide]",> 10000 nM
12,CC(C)Oc1ccc(F)cc1-c1cc(CNC(=O)c2ccccc2OC(F)(F)F)n[nH]1 [Compound 116],> 10000 nM
13,COc1ccc(F)cc1-c1nc(CNC(=O)c2ccc3c(c2)OC(F)(F)O3)n[nH]1 [Compound 119],1000 to 10000 nM
14,O=C(NCc1cc(-c2cccs2)[nH]n1)c1cc(C(F)(F)F)ccc1N1CCCC1 [Compound 83],1000 to 10000 nM
15,CCOc1ccc(Cl)cc1-c1cc(CNC(=O)c2ccccc2OC(F)F)n[nH]1 [Compound 47],> 10000 nM
16,O=C(NCc1cc(-c2cccs2)[nH]n1)c1cc(O)ccc1N1CCCC(F)(F)C1 [Compound 81],1000 to 10000 nM
17,"COc1ccccc1-c1nc(C2(NC(=O)c3ccccc3OC(F)F)CC2)n[nH]1 [Compound 118, 2-(difluoromethoxy)-N-(1-(5-(2-methoxyphenyl)-1H-1,2,4-triazol-3-yl)cyclopropyl) benzamide]",1000 to 10000 nM
18,COc1ncccc1-c1cc(CNC(=O)c2ccccc2OC(F)(F)F)n[nH]1 [Compound 27],> 10000 nM
19,CN(C)c1ccccc1-c1cc(CNC(=O)c2ccccc2OC(F)(F)F)n[nH]1 [Compound 30],> 10000 nM
20,Cc1cn[nH]c1-c1cc(CNC(=O)c2ccccc2OC(F)(F)F)n[nH]1 [Compound 24],> 10000 nM
21,"COc1ccc(O)cc1-c1nc(CNC(=O)c2ccccc2OC(F)F)n[nH]1 [Compound 63, 2-(Difluoromethoxy)-N-((5-(5-hydroxy-2-methoxyphenyl)-1H-1,2,4-triazol-3-yl)methyl) benzamide]",1000 to 10000 nM
22,"COc1ccccc1-c1nc(S(=O)(=O)NC(=O)c2ccccc2OC(F)(F)F)n[nH]1 [Compound 123, N-((5-(2-methoxyphenyl)-1H-1,2,4-triazol-3-yl)sulfonyl)-2-(trifluoromethoxy) benzamide]",1000 to 10000 nM
23,O=C(NCc1n[nH]c(-c2cccs2)n1)c1ccccc1N1CC(F)(F)C1 [Compound 74],> 10000 nM
24,O=C(NCc1cc(-c2cccs2)[nH]n1)c1ccc(O)cc1C(F)(F)F [Compound 13],> 10000 nM
25,COc1ccncc1-c1nc(CNC(=O)c2ccccc2OC(F)(F)F)n[nH]1 [Compound 35],1000 to 10000 nM
26,COc1ccncc1-c1cc(CNC(=O)c2ccccc2OC(F)(F)F)n[nH]1 [Compound 33],1000 to 10000 nM
27,"O=C(NCc1n[nH]c(-c2cccs2)n1)c1nccnc1N1CCC(F)(F)C1 [Compound 87, 3-(3,3-difluoropyrrolidin-1-yl)-N-((5-(thiophen-2-yl)-1H-1,2,4-triazol-3-yl)methyl) pyrazine-2-carboxamide]",> 10000 nM
28,COc1ccc(-c2cc(CNC(=O)c3ccccc3OC(F)(F)F)n[nH]2)c(OC)c1 [Compound 117],> 10000 nM
29,"O=C(NCc1n[nH]c(-c2cccc(O)c2O)n1)c1ccccc1OC(F)F [Compound 61, 2-(Difluoromethoxy)-N-((5-(2,3-dihydroxyphenyl)-1H-1,2,4-triazol-3-yl)methyl) benzamide]",1000 to 10000 nM
30,O=C(NCc1cc(-c2cccnc2O)[nH]n1)c1ccccc1OC(F)(F)F [Compound 28],> 10000 nM

# More lines, now with the values ahead:
row,IC50,Structure (SMILES)
1,< 1000 nM,"COc1ccccc1-c1nc(CNC(=O)c2cccnc2OC(F)F)n[nH]1 [Compound 144, 2-(difluoromethoxy)-N-((5-(2-methoxyphenyl)-1H-1,2,4-triazol-3-yl)methyl) nicotinamide]"
2,1000 to 10000 nM,O=C(NCc1cc(-c2cccs2)[nH]n1)c1cccc(C(F)(F)F)c1N1CCCCC1 [Compound 79]
3,< 1000 nM,COc1ccsc1-c1cc(CNC(=O)c2ccccc2OC(F)(F)F)n[nH]1 [Compound 36]
4,< 1000 nM,"COc1ccccc1-c1nc(CNC(=O)c2cccc(F)c2OC(F)F)n[nH]1 [Compound 136, 2-(difluoromethoxy)-3-fluoro-N-((5-(2-methoxyphenyl)-1H-1,2,4-triazol-3-yl)methyl) benzamide]"
5,< 1000 nM,CC(C)Oc1ccc(F)cc1-c1cc(CNC(=O)c2cc(F)ccc2N2CCCC2)n[nH]1 [Compound 98]
6,< 1000 nM,CCOc1ccccc1-c1nc(CNC(=O)c2ccccc2OC(F)(F)F)n[nH]1 [Compound 57]
7,< 1000 nM,"O=C(NCc1n[nH]c(-c2ccccc2O)n1)c1ccccc1OC(F)F [Compound 60, 2-(Difluoromethoxy)-N-((5-(2-hydroxyphenyl)-1H-1,2,4-triazol-3-yl)methyl) benzamide]"
8,< 1000 nM,COc1ccccc1-c1cc(CNC(=O)c2cc(F)ccc2N2CCCCC2)n[nH]1 [Compound 100]
9,1000 to 10000 nM,COc1ccc(Cl)cc1-c1cc(CNC(=O)c2ccccc2OC(F)(F)F)n[nH]1 [Compound 48]
10,1000 to 10000 nM,CCOc1ccc(F)cc1-c1cc(CNC(=O)c2ccccc2OC(F)(F)F)n[nH]1 [Compound 44]
11,< 1000 nM,O=C(NCc1n[nH]c(-c2cc(F)ccc2O)n1)c1ccccc1OC(F)F [Compound 129]
12,< 1000 nM,Cc1ccc(N2CCCC(F)(F)C2)c(C(=O)NCc2cc(-c3cccs3)[nH]n2)c1 [Compound 96]
13,1000 to 10000 nM,COc1ccccc1-c1nc(CNC(=O)c2ccc3c(c2)OC(F)(F)O3)n[nH]1 [Compound 120]
14,< 1000 nM,O=C(NCc1cc(-c2cc(F)ccc2O)[nH]n1)c1cc(F)ccc1N1CCCCC1 [Compound 91]
15,< 1000 nM,O=C(NCc1cc(-c2ccccc2O)[nH]n1)c1ccccc1OC(F)(F)F [Compound 53]
16,< 1000 nM,"COc1ccccc1-c1cc(CNC(=O)c2ccccc2N2CCCCC2)n[nH]1 [Compound 102, N-((5-(2-methoxyphenyl)-1H-pyrazol-3-yl)methyl)-2-(piperidin-1-yl) benzamide]"

row,IC50,Structure (SMILES)
1,< 1000 nM,COc1ccccc1-c1nc(CNC(=O)c2cccc3c2OC(F)(F)O3)n[nH]1 [Compound 132]
2,< 1000 nM,O=C(NCc1cc(-c2cccs2)[nH]n1)c1ccccc1N1CCCCC1 [Compound 68]
3,< 1000 nM,O=C(NCc1cc(-c2cccs2)[nH]n1)c1ccccc1N1CCC(F)(F)CC1 [Compound 65]
4,< 1000 nM,COc1ccccc1-c1cc(CNC(=O)c2ccccc2N2CCCC2)n[nH]1 [Compound 105]
5,< 1000 nM,COc1ccc(F)cc1-c1cc(CNC(=O)c2ccccc2OC(F)(F)F)n[nH]1 [Compound 51]
6,< 1000 nM,COc1ccc(F)cc1-c1nc(CNC(=O)c2cc(C#N)ccc2OC(F)F)n[nH]1 [Compound 139]
7,< 1000 nM,O=C(NCc1cc(-c2cccs2)[nH]n1)c1cc(F)ccc1N1CCCC1 [Compound 94]
8,< 1000 nM,COc1ccc(F)cc1-c1cc(CNC(=O)c2cc(F)ccc2N2CCCCC2)n[nH]1 [Compound 110]
9,< 1000 nM,O=C(NCc1n[nH]c(-c2cccs2)n1)c1ccccc1N1CCC(F)(F)C1 [Compound 75]
10,< 1000 nM,COc1ccccc1-c1cc(CNC(=O)c2cc(F)ccc2N2CCCC2)n[nH]1 [Compound 104]
11,< 1000 nM,O=C(NCc1cc(-c2cccs2)[nH]n1)c1ccccc1N1CCCC1 [Compound 72]
12,< 1000 nM,COc1ccccc1-c1nc(CNC(=O)c2cc(F)ccc2OC(F)(F)F)n[nH]1 [Compound 134]
13,< 1000 nM,"COc1ccc(F)cc1-c1nc(CNC(=O)c2cccnc2OC(F)F)n[nH]1 [Compound 143, 2-(difluoromethoxy)-N-((5-(5-fluoro-2-methoxyphenyl)-1H-1,2,4-triazol-3-yl)methyl) nicotinamide]"
14,< 1000 nM,COc1ccc(F)cc1-c1nc(CNC(=O)c2ccccc2OC(F)F)n[nH]1 [Compound 128]
15,< 1000 nM,"O=C(NCc1cc(-c2cccs2)[nH]n1)c1cc(F)ccc1N1CCCCC1 [Compound 80, 5-fluoro-2-(piperidin-1-yl)-N-((5-(thiophen-2-yl)-1H-pyrazol-3-yl)methyl) benzamide]"
